Literature values, collected in US20020066702A1, “Antibacterial and antibiofilm bonded permanent magnets” (priority 2000, published 2002).

Tests used:
human fibroblast = details: 24 hours after a 15 minute exposure to 1% povidone-iodine, 3% hydrogen peroxide or 0.5% sodium hypochlorite
[1] = system: full thickness dermal wounds on the backs of rats; details: eight days after initial irrigation with 1% povidone-iodine or 0.5% sodium hypochlorite

| Compound | fibroblast survival (human fibroblast) | re-epithelialization [1] |
| --- | --- | --- |
| OCl [sodium hypochlorite] | no fibroblasts survived | substantially and statistically significantly inhibited |
| OO [hydrogen peroxide] | no fibroblasts survived |  |
| polyvinylpyrrolidone-iodine complex [povidone-iodine] | no fibroblasts survived | substantially and statistically significantly inhibited |
